Legend:
[1] = molecular target: Sigma non-opioid intracellular receptor 1 (Cavia porcellus); test: Binding affinity against sigma sites in guinea pig membrane using [3H](+)-3-PPP as the radioligand
[2] = molecular target: Sigma receptor (Cavia porcellus); test: Binding affinity against sigma sites in guinea pig membrane using [3H]DTG as the radioligand

SMILES	IC50 [1] [nM]	IC50 [2] [nM]
Clc1ccc(OCCN2C3CCC2c2c([nH]c4ccccc24)C3)cc1 (configuration not stated) [1-(4-chlorophenoxy)-2-[9,15-diazatetracyclo[10.2.1.02,10.03,8]pentadeca-2(10),3,5,7-tetraen-15-yl]ethane]	4880	251
c1ccc(OCCN2C3CCC2c2c([nH]c4ccccc24)C3)cc1 (configuration not stated) [1-[9,15-diazatetracyclo[10.2.1.02,10.03,8]pentadeca-2(10),3,5,7-tetraen-15-yl]-2-phenoxyethane]	534	110
c1ccc(OCCCN2C3CCC2c2c([nH]c4ccccc24)C3)cc1 (configuration not stated) [1-[9,15-diazatetracyclo[10.2.1.02,10.03,8]pentadeca-2(10),3,5,7-tetraen-15-yl]-3-phenoxypropane]	262	132
c1csc(CCCCN2C3CCC2c2c([nH]c4ccccc24)C3)c1 (configuration not stated) [1-[9,15-diazatetracyclo[10.2.1.02,10.03,8]pentadeca-2(10),3,5,7-tetraen-15-yl]-4-(2-thienyl)butane]	98	21
c1ccc(OCCCCN2C3CCC2c2c([nH]c4ccccc24)C3)cc1 (configuration not stated) [1-[9,15-diazatetracyclo[10.2.1.02,10.03,8]pentadeca-2(10),3,5,7-tetraen-15-yl]-4-phenoxybutane]	205	88
c1ccc(CCCCCN2C3CCC2c2c([nH]c4ccccc24)C3)cc1 (configuration not stated) [1-[9,15-diazatetracyclo[10.2.1.02,10.03,8]pentadeca-2(10),3,5,7-tetraen-15-yl]-5-phenylpentane]	348	107
c1ccc(CCCCN2C3CCC2c2c(n(Cc4ccccc4)c4ccccc24)C3)cc1 (configuration not stated) [1-[9-benzyl-9,15-diazatetracyclo[10.2.1.02,10.03,8]pentadeca-2(10),3,5,7-tetraen-15-yl]-4-phenylbutane]	396	267
CC(C)n1c2c(c3ccccc31)C1CCC(C2)N1CCCCc1ccccc1 (configuration not stated) [1-[9-isopropyl-9,15-diazatetracyclo[10.2.1.02,10.03,8]pentadeca-2(10),3,5,7-tetraen-15-yl]-4-phenylbutane]	705	231
O=C1c2ccccc2C(=O)N1CCCN1C2CCC1c1c([nH]c3ccc(F)cc13)C2 (configuration not stated) [2-{3-[5-fluoro-9,15-diazatetracyclo[10.2.1.02,10.03,8]pentadeca-2(10),3,5,7-tetraen-15-yl]propyl}-1,3-isoindolinedione]	3330	836
OCCCN1C2CCC1c1c([nH]c3ccc(F)cc13)C2 (configuration not stated) [3-[5-fluoro-9,15-diazatetracyclo[10.2.1.02,10.03,8]pentadeca-2(10),3,5,7-tetraen-15-yl]-1-propanol]	1380	317
Fc1ccc2[nH]c3c(c2c1)C1CCC(C3)N1Cc1ccccc1 (configuration not stated) [15-benzyl-5-fluoro-9,15-diazatetracyclo[10.2.1.02,10.03,8]pentadeca-2(10),3,5,7-tetraene]	908	86
